Test results as given in US6083964A, “Optical resolution of racemic aminoalkylpyridine anticonvulsants and (+) aminoalkylpyridine enantiomers as highly potent orally effective anticonvulsant drugs and excitatory amino acid antagonists” (K and K Biosciences, Inc., priority 1999, dated 2000).

Assays:
hippocampal kindled rats = assay: Hippocampal kindled rat model, i.p.; type: in vivo; design: key to Seizure Score ± S.E.M.: Racine seizure class scale; class 5 = rearing and falling; settings: for seizure score and afterdischarge duration (in words): hippocampal kindled rat
Excerpt: "Kindling" refers to the process whereby repeated administration of an initially subconvulsive electrical stimulus results in progressive intensification of epileptic discharge culminating in a generalized seizure. Kindling can be induced by electrical stimulation of many sites in the brain, especially in "limbic" areas, which include amygdala, hippocampus, and entorhinal cortex [Racine, R., Neurosurgery, 3, 234-252 (1978)]. Kindling is reliably produced by a one second train of 60 Hz square wave stimuli of one millisecond duration at current levels which initially produce only a slight afterdischarge (AD), but no behavioral response. Repeated stimulation, typically once daily, results in a progressive increase in AD amplitude, duration and complexity with subsequent spread to other brain areas culminating in a fully generalized motor seizure. [Racine, R. J. and Zaide, J., In "Mechanisms, the Continuing Evolution of the Limbic System Concept" (K. E. Livingston and O. Hornykiewicz, eds.), Plenum Press, pp. 457-493, 1978.
The development of kindling in the rat has been characterized by five (1 to 5) behavioral and electrographic "classes". The behavior in classes 1 (facial clonus) and 2 (head nodding) mimics that found in human complex partial seizures; the behavior in other classes would be consistent with limbic seizures evolving to generalized motor seizures. An animal is considered to be fully kindled once the enhanced sensitivity has developed, as evidenced by a class 5 seizure (rearing and falling).
The (+) AAP enantiomer, compound 1 in Table 1, was tested in the hippocampal kindled rat, by the i.p. route. […]
The (-) AAP enantiomer, compound 2 in Table 1, was also tested in the hippocampal kindled rat, by the i.p. route.

[1] = system: maximal electroshock seizure (MES) in mice; assay: Maximal electroshock seizure (MES) test, mice, i.p.; type: in vivo, mouse (male Carworth Farms #1)
Excerpt: The (+) AAP enantiomers obtained by optical resolution of racemic AAPs and the resulting highly orally effective anticonvulsant compositions of this invention are useful in the treatment of convulsive disorders. […] A series of (+) AAP enantiomers and (-) AAP enantiomers of this invention has been evaluated for anticonvulsant activity by the intraperitoneal (i.p.) and by the oral (p.o.) route using two standard seizure models in the mouse and in the rat, the maximal electroshock seizure (MES) test and the subcutaneous pentylenetetrazol (Metrazole) seizure threshold (scMet) test. […] The following Table 2 presents the results of these anticonvulsant tests with respect to several (+) and (-) AAP enantiomeric compounds derived from optical resolution of racemic AAPs of the present invention. This Table 2 identifies the specific compounds tested by their chemical name and provides the test model, the route of administration, the animal species used, and the anticonvulsant activity and toxicity in terms of ED50 and TD50 values, (the median effective and toxic dose respectively), when intraperitoneally administered to mice, and when orally administered to rats. In mice, i.p.: All compounds are emulsified in 0.5% methylcellulose. The solvent has been tested for anticonvulsant and toxic effects and found to introduce no significant bias into the testing of anticonvulsant activity. The compounds are administered intraperitoneally in a volume of 0.01 ml/gm to male Carworth Farms #1 mice weighing about 20 gm. All compounds are tested at least at three dose levels (30, 100 and 300 mg/kg) at 30 minutes and 4 hours after their administration. The Maximal Electroshock Seizure Test (MES): Maximal electroshock seizures are elicited with a 60 Hz alternating current of 50 mA intensity in mice and about 150 mA intensity in rats (5-7 times that necessary to elicit minimal electroshock seizures), delivered for 0.2 sec via corneal electrodes. A drop of 0.9% saline is instilled in the eye prior to application of the electrodes in order to […]. Abolition of the hind limb tonic extension component of the seizure is defined as protection and results are expressed as number of animals protected/number of animals tested. The Subcutaneous Pentylenetetrazol (Metrazole) Seizure Threshold Test (scMet): A 0.5% solution of 85 mg/kg of pentylenetetrazol is administered subcutaneously in the posterior midline 30 minutes or 4 hours after drug administration to the animal. […] Anticonvulsant Quantification in Mice i.p.: The ED50 values are determined in the MES, scMet and rotorod ataxia test. To determine the ED50 values, five logarithmically spaced doses of the test compound are administered to animals (male Carworth Farms #1 mice) in groups of eight, to cover 0-100% protection, and the dose required to protect 50% of the animals (ED50) together with its 95% confidence limits, is determined graphically.

[2] = system: pentylenetetrazol (Metrazole) seizure threshold in mice; assay: Timed intravenous Metrazol (PTZ) seizure threshold test in mice, i.p.; type: in vivo, mouse; settings: for time to twitch: control 33.03; for PTZ dose for the clonus component: control 37.60; for time to clonus: control 39.71
Excerpt: A compound that is active in the MES test and prevents seizure spread, can lower seizure threshold at the same time. Such a compound would have proconvulsant activity while at the same time prevent generalized tonic seizures. […] The timed intravenous pentylenetetrazol (Metrazol) seizure threshold test in mice identifies those MES compounds with proconvulsant potential.
Mice were given the (+) and (-) enantiomers, compounds 1 and 2 in Table 1, intraperitoneally at the ED50 and TD50. At the time of maximal MES activity, an intravenous infusion of 0.5% heparinized solution of pentylenetetrazol (PT2) (0.34 ml/min) was started. The time to the appearance of the first myoclonic jerk (twitch) and the subsequent sustained clonic seizure (clonus) were the measured endpoints. Results were obtained for groups of ten treated and ten saline control mice and converted to the dose in mg/kg of PTZ necessary to produce the two endpoints.
Experiments were performed using three doses of 0, 36 and 149 mg/kg on each of 10 animals per dosage group. The time to "twitch" and the time to "clonus", the two components of the seizure elicited by the infusion of metrazol, were observed.

CC(Nc1ccc(Cl)cc1)c1ccncc1 (single isomer, unassigned; (+)) [Compound 1, (+) N-(4-Chlorophenyl)-1-(4-pyridyl)ethylamine]
Afterdischarge Duration (sec) ± S.E.M. (hippocampal kindled rats; 25 mg/kg i.p., 15 min): 76.63 ± 7.34 s | Seizure Score ± S.E.M. (hippocampal kindled rats; 25 mg/kg i.p., 15 min): 4.63 ± 0.18 | # Protected/# Tested (hippocampal kindled rats; 25 mg/kg i.p., 45 min): 2/8 | Afterdischarge Duration (sec) ± S.E.M. (hippocampal kindled rats; 25 mg/kg i.p., 45 min): 54.63 ± 12.54 s | Seizure Score ± S.E.M. (hippocampal kindled rats; 25 mg/kg i.p., 45 min): 3.75 ± 0.65 | Afterdischarge Duration (sec) ± S.E.M. (hippocampal kindled rats; 25 mg/kg i.p., 75 min): 62.75 ± 10.46 s | Seizure Score ± S.E.M. (hippocampal kindled rats; 25 mg/kg i.p., 75 min): 4.13 ± 0.48 | Afterdischarge Duration (sec) ± S.E.M. (hippocampal kindled rats; 25 mg/kg i.p., 105 min): 74.75 ± 6.44 s | Seizure Score ± S.E.M. (hippocampal kindled rats; 25 mg/kg i.p., 105 min): 5.00 ± 0.00 | Seizure Score ± S.E.M. (hippocampal kindled rats; 25 mg/kg i.p., 135 min): 4.50 ± 0.19 | Afterdischarge Duration (sec) ± S.E.M. (hippocampal kindled rats; 50 mg/kg i.p., 15 min): 56.43 ± 7.60 s | Seizure Score ± S.E.M. (hippocampal kindled rats; 50 mg/kg i.p., 15 min): 3.75 ± 0.53 | # Protected/# Tested (hippocampal kindled rats; 50 mg/kg i.p., 45 min): 2/8 | Afterdischarge Duration (sec) ± S.E.M. (hippocampal kindled rats; 50 mg/kg i.p., 45 min): 63.38 ± 10.75 s | Seizure Score ± S.E.M. (hippocampal kindled rats; 50 mg/kg i.p., 45 min): 4.13 ± 0.40 | Afterdischarge Duration (sec) ± S.E.M. (hippocampal kindled rats; 50 mg/kg i.p., 75 min): 63.14 ± 6.38 s | Seizure Score ± S.E.M. (hippocampal kindled rats; 50 mg/kg i.p., 75 min): 4.71 ± 0.18 | Afterdischarge Duration (sec) ± S.E.M. (hippocampal kindled rats; 50 mg/kg i.p., 105 min): 74.57 ± 11.58 s | Seizure Score ± S.E.M. (hippocampal kindled rats; 50 mg/kg i.p., 105 min): 4.71 ± 0.18 | Afterdischarge Duration (sec) ± S.E.M. (hippocampal kindled rats; 50 mg/kg i.p., 135 min): 61.43 ± 12.97 s | Seizure Score ± S.E.M. (hippocampal kindled rats; 50 mg/kg i.p., 135 min): 4.00 ± 0.69 | Afterdischarge Duration (sec) ± S.E.M. (hippocampal kindled rats; 50 mg/kg i.p., 165 min): 73.14 ± 9.41 s | Seizure Score ± S.E.M. (hippocampal kindled rats; 50 mg/kg i.p., 165 min): 4.57 ± 0.20 | Afterdischarge Duration (sec) ± S.E.M. (hippocampal kindled rats; 75 mg/kg i.p., 15 min): 63.29 ± 6.70 s | Seizure Score ± S.E.M. (hippocampal kindled rats; 75 mg/kg i.p., 15 min, * significantly different from control): 2.86 ± 0.59 | # Protected/# Tested (hippocampal kindled rats; 75 mg/kg i.p., 45 min): 5/7 | Afterdischarge Duration (sec) ± S.E.M. (hippocampal kindled rats; 75 mg/kg i.p., 45 min): 55.43 ± 10.39 s | Seizure Score ± S.E.M. (hippocampal kindled rats; 75 mg/kg i.p., 45 min, * significantly different from control): 2.43 ± 0.69 | Afterdischarge Duration (sec) ± S.E.M. (hippocampal kindled rats; 75 mg/kg i.p., 75 min): 74.57 ± 10.36 s | Seizure Score ± S.E.M. (hippocampal kindled rats; 75 mg/kg i.p., 75 min, * significantly different from control): 2.86 ± 0.59 | Afterdischarge Duration (sec) ± S.E.M. (hippocampal kindled rats; 75 mg/kg i.p., 105 min): 68.57 ± 5.52 s | Seizure Score ± S.E.M. (hippocampal kindled rats; 75 mg/kg i.p., 105 min, * significantly different from control): 3.86 ± 0.34 | Afterdischarge Duration (sec) ± S.E.M. (hippocampal kindled rats; 75 mg/kg i.p., 135 min): 65.00 ± 4.12 s | Seizure Score ± S.E.M. (hippocampal kindled rats; 75 mg/kg i.p., 135 min): 4.14 ± 0.26 | Afterdischarge Duration (sec) ± S.E.M. (hippocampal kindled rats; 100 mg/kg i.p., 15 min): 63.43 ± 11.37 s | Seizure Score ± S.E.M. (hippocampal kindled rats; 100 mg/kg i.p., 15 min, Table 3 value * significantly different from control): 2.00 ± 0.69 | # Protected/# Tested (hippocampal kindled rats; 100 mg/kg i.p., 45 min): 6/7 | Afterdischarge Duration (sec) ± S.E.M. (hippocampal kindled rats; 100 mg/kg i.p., 45 min): 63.29 ± 4.76 s | Seizure Score ± S.E.M. (hippocampal kindled rats; 100 mg/kg i.p., 45 min, Table 3 value * significantly different from control): 2.00 ± 0.58 | Afterdischarge Duration (sec) ± S.E.M. (hippocampal kindled rats; 100 mg/kg i.p., 75 min): 75.43 ± 9.70 s | Seizure Score ± S.E.M. (hippocampal kindled rats; 100 mg/kg i.p., 75 min, Table 3 value * significantly different from control): 2.29 ± 0.61 | Afterdischarge Duration (sec) ± S.E.M. (hippocampal kindled rats; 100 mg/kg i.p., 105 min): 71.00 ± 5.35 s | Seizure Score ± S.E.M. (hippocampal kindled rats; 100 mg/kg i.p., 105 min, Table 3 value * significantly different from control): 2.29 ± 0.71 | ED50 (hippocampal kindled rats; Rattus norvegicus, ip, 0.75 h, hippocampal kindled rats, 45 min, 95% C.I. printed b332): 54.9 mg/kg | Slope (hippocampal kindled rats; dose response, hippocampal kindled rats, i.p., 45 min): 2.93 ± 1.16 | seizure score and afterdischarge duration (in words) (hippocampal kindled rats; i.p.): significantly reduced seizure score and afterdischarge duration and the effect was dose-dependent | seizure score and afterdischarge duration (in words) (hippocampal kindled rats; i.p., listed as (+) N-(4-chlorophenyl)-1-(4-pyridyl)ethylamine): significantly reduced from that of the control | P.I. (protective index, TD50/ED50) ([1]; MES, listed as (1) (+) Enantiomer): 4.2 | ED50 ([1]; Mus musculus, ip, MES test, read-out: ED50): 35.9 mg/kg | time to twitch ([2]; 36 mg/kg dosage group): 34.91 s | PTZ dose for the clonus component ([2]; 36 mg/kg dosage group): 46.84 mg/kg | time to clonus ([2]; 36 mg/kg dosage group): 48.56 s | PTZ dose for the twitch component ([2]; 149 mg/kg dosage group, control 31.23): 33.31 mg/kg | time to twitch ([2]; 149 mg/kg dosage group): 35.01 s | PTZ dose for the clonus component ([2]; 149 mg/kg dosage group): 74.13 mg/kg | time to clonus ([2]; 149 mg/kg dosage group): 77.56 s | amount of PTZ required to produce the twitch and clonus and time to twitch and time to clonus (in words) ([2]; mice): significantly raised
